In general, IC50 refers to the point on the concentration scale where inhibition reaches its midpoint.

One experiment has as its target human PLK4 (Homo sapiens (Human), UniProt O00444). As to the kind of experiment: PLK4 inhibition assay (indirect ELISA). The format is biochemical. Background: ELISA stands for enzyme-linked immunosorbent assay.
The target in a further experiment is Aurora B (Homo sapiens (Human), UniProt Q96GD4). Description: Aurora B inhibition assay (Z-Lyte). The experiment is classed as biochemical. As to conditions: read-out: Aurora B IC50 Ranges.
Aurora B, sequence (Q96GD4 whole entry): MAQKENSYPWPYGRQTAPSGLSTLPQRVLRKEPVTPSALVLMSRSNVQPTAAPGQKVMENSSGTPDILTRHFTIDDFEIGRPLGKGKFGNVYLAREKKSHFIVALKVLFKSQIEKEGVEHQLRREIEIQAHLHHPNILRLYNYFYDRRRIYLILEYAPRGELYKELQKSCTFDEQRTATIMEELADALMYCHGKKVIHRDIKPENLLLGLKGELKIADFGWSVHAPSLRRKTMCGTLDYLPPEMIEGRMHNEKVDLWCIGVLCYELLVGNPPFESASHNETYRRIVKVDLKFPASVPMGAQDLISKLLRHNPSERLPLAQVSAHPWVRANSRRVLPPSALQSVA

Structures can show the parent of a compound that is named as a salt. Where two headings read alike, the source gives them in different places.

human PLK4, sequence (O00444 1-391): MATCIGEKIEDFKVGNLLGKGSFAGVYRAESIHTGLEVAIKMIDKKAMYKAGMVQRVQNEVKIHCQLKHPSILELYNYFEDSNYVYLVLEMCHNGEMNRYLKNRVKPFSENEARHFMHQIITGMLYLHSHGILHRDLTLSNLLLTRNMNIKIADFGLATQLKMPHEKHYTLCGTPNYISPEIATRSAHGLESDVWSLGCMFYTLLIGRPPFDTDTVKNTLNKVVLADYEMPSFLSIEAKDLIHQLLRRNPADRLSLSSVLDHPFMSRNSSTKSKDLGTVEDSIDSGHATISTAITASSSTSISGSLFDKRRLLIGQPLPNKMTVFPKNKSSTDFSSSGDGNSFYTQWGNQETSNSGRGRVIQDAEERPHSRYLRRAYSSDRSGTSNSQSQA
Protocol for Aurora B: Aurora B inhibition was determined using the Z-Lyte assay kit from Invitrogen. […] The % inhibition values were determined according to the manufacturer's directions and IC50 values were obtained using a non-linear 4 point logistic curve fit (XLfit4, IDBS)

For `NS(=O)(=O)c1cccc(-c2n[nH]c3cc([C@@H]4C[C@@]45C(=O)Nc4ccccc45)ccc23)c1` (relative stereo) [Example A130, 3-(6-((1R*,2S*)-2′-oxospiro[cyclopropane-1,3′-indoline]-2-yl)-1H-indazol-3-yl)benzenesulfonamide], the IC50 was below 100 nM at human PLK4 (read-out: PLK4 IC50 Ranges) and 100 to 1000 nM on Aurora B.
Taken in the same sequence, the figures for `CN1CCc2cc(/C=C/c3n[nH]c4cc([C@@H]5C[C@@]56C(=O)Nc5ccccc56)ccc34)ccc2C1` [Example A74, (1R,2S)-2-(3-((E)-2-(2-methyl-1,2,3,4-tetrahydroisoquinolin-6-yl)vinyl)-1H-indazol-6-yl)spiro[cyclopropane-1,3′-indolin]-2′-one 2,2,2-trifluoroacetate salt] were below 100 nM and below 100 nM.
Take `CN1CCN(c2ccc(-c3n[nH]c4cc([C@@H]5C[C@@]56C(=O)Nc5ccc(N)cc56)ccc34)cc2)CC1` (relative stereo) [Example A86, (1R*,2S*)-5′-amino-2-(3-(4-(4-methylpiperazin-1-yl)phenyl)-1H-indazol-6-yl)spiro[cyclopropane-1,3′-indolin]-2′-one]: the IC50 on human PLK4 (read-out: PLK4 IC50 Ranges) was below 100 nM; on Aurora B, 100 to 1000 nM.
Take `CN1CCc2cc(-c3n[nH]c4cc([C@@H]5C[C@@]56C(=O)Nc5ccccc56)ccc34)ccc2C1` [Example A76, (1R,2S)-2-(3-(2-methyl-1,2,3,4-tetrahydroisoquinolin-6-yl)-1H-indazol-6-yl)spiro[cyclopropane-1,3′-indolin]-2′-one 2,2,2-trifluoroacetate salt]: the IC50 on human PLK4 (read-out: PLK4 IC50 Ranges) and at Aurora B was below 100 nM throughout.
Take `COc1ccc2c(c1)[C@]1(C[C@H]1c1ccc3c(-c4ccc(N5CCNCC5)cc4)n[nH]c3c1)C(=O)N2` (relative stereo) [Example A48, (1R*,2S*)-5′-methoxy-2-(3-(4-(piperazin-1-yl)phenyl)-1H-indazol-6-yl)spiro[cyclopropane-1,3′-indolin]-2′-one 2,2,2-trifluoroacetate]: the IC50 against human PLK4 and on Aurora B was below 100 nM each time.
Turning to `COc1ccc2c(c1)[C@]1(C[C@H]1c1ccc3c(/C=C/c4ccc(OC5CCN(C)CC5)cc4)n[nH]c3c1)C(=O)N2` [Example A79, (1R,2S)-(E)-5′-methoxy-2-(3-(4-(1-methylpiperidin-4-yloxy)styryl)-1H-indazol-6-yl)spiro[cyclopropane-1,3′-indolin]-2′-one 2,2,2-trifluoroacetate salt], the IC50 at human PLK4 (read-out: PLK4 IC50 Ranges) and on Aurora B was below 100 nM in each case.
Consider `COc1ccc2c(c1)[C@@]1(C[C@@H]1c1ccc3c(-c4ccc(N5CCNCC5)cc4)n[nH]c3c1)C(=O)N2` [Example A50, (1S,2R)-5′-methoxy-2-(3-(4-(piperazin-1-yl)phenyl)-1H-indazol-6-yl)spiro[cyclopropane-1,3′-indolin]-2′-one 2,2,2-trifluoroacetate], for which the IC50 at human PLK4 (read-out: PLK4 IC50 Ranges) and at Aurora B was below 100 nM in each case.
For the compound `COc1ccc2c(c1)[C@]1(C[C@H]1c1ccc3c(-c4ccc(OCCN5CCCCC5)cc4)n[nH]c3c1)C(=O)N2` [Example A67, (1R,2S)-5′-methoxy-2-(3-(4-(2-(piperidin-1-yl)ethoxy)phenyl)-1H-indazol-6-yl)spiro[cyclopropane-1,3′-indolin]-2′-one 2,2,2-trifluoroacetate salt], the IC50 on human PLK4 (read-out: PLK4 IC50 Ranges) and on Aurora B was below 100 nM each time.
As for `COc1ccc2c(c1)[C@]1(C[C@H]1c1ccc3c(/C=C/c4ccc(CN5CCOCC5)s4)n[nH]c3c1)C(=O)N2` [Example A105, (1R,2S)-5′-methoxy-2-(3-((E)-2-(5-(morpholinomethyl)thiophen-2-yl)vinyl)-1H-indazol-6-yl)spiro[cyclopropane-1,3′-indolin]-2′-one hydrochloride], the half-maximal inhibitory concentration (IC50) on human PLK4 (read-out: PLK4 IC50 Ranges) and at Aurora B was below 100 nM in each case.
With `COc1ccc2c(c1)[C@]1(C[C@H]1c1ccc3c(-c4ccc(N5CCNCC5)cc4)n[nH]c3c1)C(=O)N2C` [Example A101, (1R,2S)-5′-methoxy-1′-methyl-2-(3-(4-(piperazin-1-yl)phenyl)-1H-indazol-6-yl)spiro[cyclopropane-1,3′-indolin]-2′-one 2,2,2-trifluoroacetate], the IC50 at human PLK4 (read-out: PLK4 IC50 Ranges) and at Aurora B was below 100 nM each time.
As to `CCc1ccc2c(c1)[C@]1(C[C@H]1c1ccc3c(-c4ccc(N5CCN(C)CC5)cc4)n[nH]c3c1)C(=O)N2` (relative stereo) [Example A142, (1R*,2S*)-5′-ethyl-2-(3-(4-(4-methylpiperazin-1-yl)phenyl)-1H-indazol-6-yl)spiro[cyclopropane-1,3′-indolin]-2′-one 2,2,2-trifluoroacetate], the IC50 at human PLK4 (read-out: PLK4 IC50 Ranges) and at Aurora B was below 100 nM in each case.
In the case of `COc1ccc2c(c1)[C@]1(C[C@H]1c1ccc3c(-c4ccc(OCCN(C)C)cc4)n[nH]c3c1)C(=O)N2` [Example A69, (1R,2S)-2-(3-(4-(2-(dimethylamino)ethoxy)phenyl)-1H-indazol-6-yl)-5′-methoxyspiro[cyclopropane-1,3′-indolin]-2′-one 2,2,2-trifluoroacetate salt], the IC50 on human PLK4 (read-out: PLK4 IC50 Ranges) and at Aurora B was below 100 nM in each case.
Take `COc1ccc2c(c1)[C@]1(C[C@H]1c1ccc3c(/C=C/c4ccc(CN5CCOCC5)c(F)c4)n[nH]c3c1)C(=O)N2` [Example A199, (1R,2S)-(E)-2-(3-(3-fluoro-4-(morpholinomethyl)styryl)-1H-indazol-6-yl)-5′-methoxyspiro[cyclopropane-1,3′-indolin]-2′-one 2,2,2-trifluoroacetate]: the IC50 on human PLK4 (read-out: PLK4 IC50 Ranges) and at Aurora B was below 100 nM throughout.
With `COc1ccc2c(c1)[C@]1(C[C@H]1c1ccc3c(-c4ccc(N5CCC(N6CCOCC6)CC5)cc4)n[nH]c3c1)C(=O)N2` [Example A121, (1R,2S)-5′-methoxy-2-(3-(4-(4-morpholinopiperidin-1-yl)phenyl)-1H-indazol-6-yl)spiro[cyclopropane-1,3′-indolin]-2′-one 2,2,2-trifluoroacetate], the IC50 at human PLK4 (read-out: PLK4 IC50 Ranges) and at Aurora B was below 100 nM throughout.
As for `CCN1CCN(c2ccc(-c3n[nH]c4cc([C@@H]5C[C@@]56C(=O)Nc5ccc(OC)cc56)ccc34)cc2)CC1` (relative stereo) [Example A98, (1R*,2S*)-2-(3-(4-(4-ethylpiperazin-1-yl)phenyl)-1H-indazol-6-yl)-5′-methoxyspiro[cyclopropane-1,3′-indolin]-2′-one 2,2,2-trifluoroacetate], the IC50 on human PLK4 (read-out: PLK4 IC50 Ranges) and at Aurora B was below 100 nM in each case.
As for `COc1ccc2c(c1)[C@]1(C[C@H]1c1ccc3c(/C=C/c4ccc(OCCN5CCOCC5)cc4)n[nH]c3c1)C(=O)N2` [Example A194, (1R,2S)-(E)-5′-methoxy-2-(3-(4-(2-morpholinoethoxy)styryl)-1H-indazol-6-yl)spiro[cyclopropane-1,3′-indolin]-2′-one 2,2,2-trifluoroacetate], the IC50 on human PLK4 (read-out: PLK4 IC50 Ranges) and at Aurora B was below 100 nM in each case.
In the case of `COc1ccc2c(c1)[C@]1(C[C@H]1c1ccc3c(-c4ccc(N5CCN(C)CC5)nc4)n[nH]c3c1)C(=O)N2C` (relative stereo) [Example A104, (1R*,2S*)-5′-methoxy-1′-methyl-2-(3-(6-(4-methylpiperazin-1-yl)pyridin-3-yl)-1H-indazol-6-yl)spiro[cyclopropane-1,3′-indolin]-2′-one bis(2,2,2-trifluoroacetate)], the IC50 on human PLK4 (read-out: PLK4 IC50 Ranges) and on Aurora B was below 100 nM throughout.
For the compound `CC(C)(c1ccc(/C=C/c2n[nH]c3cc([C@@H]4C[C@@]45C(=O)Nc4ccccc45)ccc23)cc1)N1CCOCC1` [Example A80, (1R,2S)-(E)-2-(3-(4-(2-morpholinopropan-2-yl)styryl)-1H-indazol-6-yl)spiro[cyclopropane-1,3′-indolin]-2′-one 2,2,2-trifluoroacetate salt], the IC50 at human PLK4 (read-out: PLK4 IC50 Ranges) was below 100 nM; on Aurora B, 100 to 1000 nM.
Taken in the same sequence, the figures for `COc1ccc2c(c1)[C@]1(C[C@H]1c1ccc3c(-c4ccc(C5CCN(C)CC5)cc4)n[nH]c3c1)C(=O)N2` [Example A123, (1R,2S)-5′-methoxy-2-(3-(4-(1-methylpiperidin-4-yl)phenyl)-1H-indazol-6-yl)spiro[cyclopropane-1,3′-indolin]-2′-one hydrochloride] were below 100 nM and below 100 nM.
Taken in the same sequence, the figures for `COc1ccc2c(c1)[C@]1(C[C@H]1c1ccc3c(/C=C/c4ccc(CN5CCCC5)cc4)n[nH]c3c1)C(=O)N2` [Example A83, (1R,2S)-(E)-5′-methoxy-2-(3-(4-(pyrrolidin-1-ylmethyl)styryl)-1H-indazol-6-yl)spiro[cyclopropane-1,3′-indolin]-2′-one 2,2,2-trifluoroacetate] were below 100 nM and below 100 nM.
Taken in the same sequence, the figures for `COc1ccc2c(c1)[C@]1(C[C@H]1c1ccc3c(/C=C/c4ccc5c(c4)CNCC5)n[nH]c3c1)C(=O)N2` [Example A66, (1R,2S)-5′-methoxy-2-(3-((E)-2-(1,2,3,4-tetrahydroisoquinolin-7-yl)vinyl)-1H-indazol-6-yl)spiro[cyclopropane-1,3′-indolin]-2′-one 2,2,2-trifluoroacetate salt] were below 100 nM and below 100 nM.
For `COc1ccc2c(c1)[C@]1(C[C@H]1c1ccc3c(-c4ccnc(N5CCN(C)CC5)c4)n[nH]c3c1)C(=O)N2` (relative stereo) [Example A37, (1R*,2S*)-5′-Methoxy-2-(3-(2-(4-methylpiperazin-1-yl)pyridin-4-yl)-1H-indazol-6-yl)spiro[cyclopropane-1,3′-indolin]-2′-one], the IC50 at human PLK4 (read-out: PLK4 IC50 Ranges) and on Aurora B was below 100 nM throughout.
`CCN(CC)Cc1c(F)cc(/C=C/c2n[nH]c3cc([C@@H]4C[C@@]45C(=O)Nc4ccc(OC)cc45)ccc23)cc1F` [Example A146, (1R,2S)-(E)-2-(3-(4-((diethylamino)methyl)-3,5-difluorostyryl)-1H-indazol-6-yl)-5′-methoxyspiro[cyclopropane-1,3′-indolin]-2′-one 2,2,2-trifluoroacetate]: the concentration for half-maximal inhibition (IC50) at human PLK4 (read-out: PLK4 IC50 Ranges) and on Aurora B was below 100 nM each time.

These data come from US9907800B2, “Kinase inhibitors and method of treating cancer” (University Health Network, priority 2010, dated 2018).
